In data set [1] the target is Cdk5/p25 (Homo sapiens, UniProt Q00535). Kind of data set: Cyclin-Dependent Kinase 5 (cdk5) Assay. The class given is biochemical. The method, then: Cyclin-Dependent Kinase 5 (cdk5) Assay
Enzyme assays for IC50 determinations and kinetic evaluation were performed in 96-well filter plates (Millipore MAPH NOB 10). […] All components except histone and ATP were added to wells, and the plate was placed on a shaker for 5 minutes. The reaction was started by adding histone and [^32P]ATP, and the plate was shaken at 30° C. for 45 minutes. The reaction was terminated by addition of 0.1 mL of 150 mM phosphoric acid. The plate was kept at 4° C. for 30 minutes to allow substrate to precipitate. The wells were then washed three times with 0.2 mL of 75 mM phosphoric acid and ^32P incorporation was determined with a beta plate counter (Wallac Inc, Gaithersburg, Md.).

The target of data set [2] is cdc2/cyclinB (Homo sapiens, UniProt P06493). Kind of data set: Cyclin-Dependent Kinase Assay cdc2/cyclinB.
The target in data set [3] is cdk4/D (Homo sapiens, UniProt P11802). Nature of the data set: Cyclin-Dependent Kinase 4 (cdk4) Assay. The format is biochemical.
Data set [4] concerns the target cdk2/cyclinA (Homo sapiens, UniProt P24941). Kind of data set: Cyclin-Dependent Kinase Assay cdk2/cyclinA.
Data set [5] concerns the target cdk2/cyclinE (Homo sapiens, UniProt P24941). Kind of data set: Cyclin-Dependent Kinase Assay cdk2/cyclinE.

Read-outs that look alike come from different tables or passages of the source.

Sequence of cdc2/cyclinB (P06493 whole entry): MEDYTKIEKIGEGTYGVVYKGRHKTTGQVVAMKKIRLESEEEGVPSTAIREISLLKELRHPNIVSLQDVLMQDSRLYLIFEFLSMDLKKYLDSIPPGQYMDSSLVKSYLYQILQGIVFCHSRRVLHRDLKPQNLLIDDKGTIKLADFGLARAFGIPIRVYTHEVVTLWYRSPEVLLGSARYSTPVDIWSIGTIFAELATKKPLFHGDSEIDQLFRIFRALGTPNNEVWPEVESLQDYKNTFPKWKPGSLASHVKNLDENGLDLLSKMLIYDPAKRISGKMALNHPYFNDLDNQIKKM
Sequence of cdc2/cyclinB (P14635 whole entry, further chain): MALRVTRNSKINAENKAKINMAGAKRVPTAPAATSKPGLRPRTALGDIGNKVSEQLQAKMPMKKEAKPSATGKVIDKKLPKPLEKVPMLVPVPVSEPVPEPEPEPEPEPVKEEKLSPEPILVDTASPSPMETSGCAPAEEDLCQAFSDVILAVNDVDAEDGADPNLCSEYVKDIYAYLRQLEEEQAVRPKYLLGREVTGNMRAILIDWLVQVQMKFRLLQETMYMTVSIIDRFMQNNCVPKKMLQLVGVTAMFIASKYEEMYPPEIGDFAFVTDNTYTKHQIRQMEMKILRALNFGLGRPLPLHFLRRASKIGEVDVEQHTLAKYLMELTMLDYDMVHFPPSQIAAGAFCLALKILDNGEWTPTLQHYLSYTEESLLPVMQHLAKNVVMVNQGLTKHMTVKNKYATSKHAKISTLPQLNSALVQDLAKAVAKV
Sequence of cdk4/D (P11802 whole entry): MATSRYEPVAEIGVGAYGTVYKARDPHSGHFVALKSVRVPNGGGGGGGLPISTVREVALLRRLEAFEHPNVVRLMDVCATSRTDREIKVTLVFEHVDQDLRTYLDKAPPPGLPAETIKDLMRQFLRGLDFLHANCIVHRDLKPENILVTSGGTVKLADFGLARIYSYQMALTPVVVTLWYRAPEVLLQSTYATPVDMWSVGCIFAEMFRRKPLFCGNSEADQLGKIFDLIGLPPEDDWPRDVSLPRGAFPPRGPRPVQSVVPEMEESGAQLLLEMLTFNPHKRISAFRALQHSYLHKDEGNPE
Sequence of cdk4/D (P24385 whole entry, further chain): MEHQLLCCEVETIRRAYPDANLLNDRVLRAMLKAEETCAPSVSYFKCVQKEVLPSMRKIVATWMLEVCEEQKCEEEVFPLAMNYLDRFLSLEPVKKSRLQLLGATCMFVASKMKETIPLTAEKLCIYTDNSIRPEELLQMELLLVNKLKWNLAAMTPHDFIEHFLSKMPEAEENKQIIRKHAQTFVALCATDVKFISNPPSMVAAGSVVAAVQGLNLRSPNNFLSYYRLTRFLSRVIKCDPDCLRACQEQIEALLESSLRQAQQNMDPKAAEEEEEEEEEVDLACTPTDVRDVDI

`O=c1ccc2cnc(Nc3ccc(N4CCCCC4)cc3)nc2n1[C@@H]1C[C@H]2CC[C@@H]1C2` (relative stereo) [Example 181, 8-Bicyclo[2.2.1]hept-2-yl-2-(4-piperidin-1-yl-phenylamino)-8H-pyrido[2,3-d]pyrimidin-7-one] came in with a melting point of 243 to 244 °C. Moreover, the IC50 in data set [1] (Table 1) came to 591 nM. Besides, the IC50 in data set [2] stood at 33400 nM. For the same molecule, the IC50 in data set [3] (Table 1, read-out: cdk4/D IC50) came out at 57.7 nM. This molecule also yielded an IC50 in data set [4] (cdk2/A IC50, Table 1) of 195 nM.

As to `O=c1ccc2cnc(Nc3ccc(N4CCCC4)cc3)nc2n1C1CCCCC1` [Example 160, 8-Cyclohexyl-2-(4-pyrrolidin-1-yl-phenylamino)-8H1-pyrido[2,3-d]pyrimidin-7-one], the melting point was in the range of 199 to 200 °C. The molecule also showed an IC50 in data set [1] (Table 1) of 113 nM. For the same molecule, in data set [2], the IC50 is 250 nM. In data set [3] (Table 1, read-out: cdk4/D IC50), the IC50 was determined as 175 nM. Further, the IC50 in data set [4] (cdk2/A IC50, Table 1) was found to be 61 nM.

With `CC1CC(C)CN(c2ccc(Nc3ncc4ccc(=O)n(C5CCCCC5)c4n3)cc2)C1` (stereo not drawn) [Example 167], the melting point was in the range of 238 to 240 °C. The molecule also came in with an IC50 in data set [1] (Table 1) of 2680 nM. The same molecule displayed an IC50 in data set [2] of 8910 nM. The IC50 in data set [3] (Table 1, read-out: cdk4/D IC50) is 430 nM. Further, the IC50 in data set [4] (cdk2/A IC50, Table 1) was determined as 272 nM.

For `O=c1ccc2cnc(Nc3ccc(N4CCc5ccccc5C4)cc3)nc2n1C1CCCCC1` [Example 171, 8-Cyclohexyl-2-[4-(3,4-dihydro-1H-isoquinolin-2-yl)-phenylamino]-8H-pyrido[2,3-d]pyrimidin-7-one], the melting point is 185 °C. In data set [1] (Table 1), the IC50 was 419 nM. In data set [2], this molecule registered an IC50 of 1210 nM. Further, the IC50 in data set [5] (cdk2/E IC50, Table 1) amounted to 320 nM. The IC50 in data set [4] (cdk2/A IC50, Table 1) was 123 nM.

For the molecule `CCN(CC)CCOc1ccc(Nc2ncc3ccc(=O)n(C4CC5CCC4C5)c3n2)cc1` (stereo not drawn) [Example 224, 8-Bicyclo[2.2.1]hept-2-yl-2-[4-(2-diethylamino-ethoxy)-phenylamino]-8H-pyrido[2,3-d]pyrimidin-7-one], the melting point lay within 133 to 134 °C. Besides, the IC50 in data set [1] (Table 1) was determined as 53.2 nM. Besides, the IC50 in data set [2] was found to be 200 nM. The molecule also registered an IC50 in data set [5] (cdk2/E IC50, Table 1) of 75 nM. For the same molecule, the IC50 in data set [4] (cdk2/A IC50, Table 1) came to 81.5 nM.

In turn, `O=c1ccc2cnc(Nc3ccc(N4CCC(CCCN5CCOCC5)CC4)cc3)nc2n1C1CC2CCC1C2` (stereo not drawn) [Example 235, 8-Bicyclo[2.2.1]hept-2-yl-2-{4-[4-(3-morpholin-4-yl-propyl)-piperidin-1-yl]-phenylamino}-8H-pyrido[2,3-d]pyrimidin-7-one] displayed a melting point of 197 to 198 °C. This molecule also registered an IC50 in data set [1] (Table 1) of 1460 nM. In data set [2], this molecule came in with an IC50 of 1700 nM. Further, the IC50 in data set [3] (Table 1, read-out: cdk4/D IC50) came to 37 nM. The molecule further showed an IC50 in data set [4] (cdk2/A IC50, Table 1) of 96 nM.

Take `O=c1ccc2cnc(Nc3ccc(N4CCCC(CCCO)C4)cc3)nc2n1C1CC2CCC1C2` (stereo not drawn) [Example 236, 8-Bicyclo[2.2.1]hept-2-yl-2-{4-[3-(3-hydroxy-propy)-piperidin-1-yl]-phenylamino}-8H-pyrido[2,3-d]pyrimidin-7-one]: the melting point lay in the range of 150 to 151 °C. In data set [1] (Table 1), the IC50 came to 395 nM. This molecule also came in with an IC50 in data set [2] of 674 nM. For the same molecule, the IC50 in data set [3] (Table 1, read-out: cdk4/D IC50) was found to be 6.9 nM. Besides, in data set [4] (cdk2/A IC50, Table 1), the IC50 came to 13.6 nM.

On to `CC(C)n1c(=O)ccc2cnc(Nc3cccc([N+](=O)[O-])c3)nc21` [Example 623, 8-Isopropyl-2-(3-nitro-phenylamino)-8H-pyrido[2,3-d]pyrimidin-7-one], for which the melting point was in the range of 202 to 203 °C. Also, the IC50 in data set [1] (Table 3) turned out to be 21 nM. Also, the IC50 in data set [5] (Cdk2/E IC50, Table 3) amounted to 760 nM. In data set [3] (Table 3, read-out: Cdk4 IC50), the IC50 came to 6250 nM. The molecule further came in with an IC50 in data set [4] (Cdk2/A IC50, Table 3) of 297 nM.

`CC(C)n1c(=O)ccc2cnc(Nc3ccc(O)cc3)nc21` [Example 624, 8-Isopropyl-2-(4-hydroxy-phenylamino)-8H-pyrido[2,3-]pyrimidin-7-one] had a melting point of more than 220 °C. In addition, the IC50 in data set [1] (Table 3) is 15 nM. Besides, in data set [5] (Cdk2/E IC50, Table 3), the IC50 amounted to 221 nM. Besides, the IC50 in data set [3] (Table 3, read-out: Cdk4 IC50) worked out at 255 nM. In addition, in data set [4] (Cdk2/A IC50, Table 3), the IC50 was 61 nM.

What is called melting point is the temperature, or range, at which the solid turns liquid.
